Assay results taken from patent US20050009858A1, “Imiquimod therapies” (priority 2001, published 2005).
“Also recorded” adds a separate entry of the source. Where two headings read alike, the source gives them in different places.

How the values were obtained:
[1] = system: Lichen Sclerosus (LS) lesions; assay: Clinical case: topical imiquimod 5% cream in a patient with penile Lichen Sclerosus; format: in vivo, human; settings: person; for Side effects / local reaction at treated areas: imiquimod 5% cream every other day, reaction after 2 weeks; for Disappearance of LS lesions: imiquimod 5% cream topically every other day for 2 weeks, assessed two weeks after stopping
From the text: A person presented to our office (MIM) with the main complaint of whitish patches on the penis of 2 months duration associated with occasional pruritus. […] Because of its immunomodulatory effects, treatment of the LS lesions with imiquimod 5% cream was offered to the patient. It was clearly explained to them that this was an off label use of the medication. They began topical application to the affected areas every other day.

[2] = system: infantile hemangioma (IH); assay: Clinical cases: topical 5% imiquimod cream in 4 patients with infantile hemangioma; format: in vivo, human
From the text: The option of topical 5% imiquimod cream at a frequency of three times per week was offered to the parents of 4 patients with IH. In each case this treatment option was found acceptable by both parents, who fully understood that this was an off label use of the medication.
A child presented for consultation with an IH on the frontal scalp (3.0×2.5 cm) that was noticed and enlarged rapidly.
A child presented with a red-grey bulbous, 4.5 cm in diameter IH on the frontal scalp that appeared and grew rapidly. MRI analysis supported the clinical diagnosis of IH. […] The medication at the parent's request was discontinued. […] Imiquimod was restarted and increased to every other day for 6 weeks. […] Therapy was discontinued.
A healthy infant was born with a small reddish, flat IH over the left lower lip that started to grow rapidly. Imiquimod, 5%, cream was applied every other day to the outer lip area only. […] The patient is […] and continues the treatment.
An infant was born with a IH on the right upper eyelid that grew rapidly during their first few months life. An MRI study excluded any involvement of any underling ocular structure. Topical application of imiquimod 5% cream was applied every other day for one month over the entire IH.

[3] = system: epithelioid hemangioendothelioma (EH); assay: Clinical case: 5% imiquimod topical cream in a patient with epithelioid hemangioendothelioma; format: in vivo, human
From the text: EH is a low grade malignant vascular tumor that occurs most commonly in the superficial or deep soft tissues of the body. The patient refused surgery for personal reasons, but acquiesced to the use of 5% imiquimod cream, even though such usage was off label.
A patient developed a nodule on the left cheek that started to grow over the period of 6 months. […] However, they were willing to apply 5% imiquimod topical cream after they were informed of the success of this agent in treatment of some skin cancers and hemangiomas.

IFN-α and TNF-α [4] = settings: nude mice; topical 1 and 5% cream; cited from earlier work
IFN-α and TNF-α [5] = settings: rats; topical 1 and 5% cream; cited from earlier work
[6] = system: polyoma virus-induced hemangioendothelioma; settings: topical imiquimod; cited from earlier work
[7] = system: cytokines including IL-2 and IFN-γ; settings: as a result of IL-12 production; cited from earlier work

CC(C)Cn1cnc2c(N)nc3ccccc3c21 [imiquimod]
Side effects / local reaction at treated areas [1]: strong reaction at the treated areas with pruritus, burning and intermittently mild pain; also recorded: erythematous, edematous plaques that were well defined and did not extend onto uninvolved skin | Side effects / local reaction at treated areas ([1]; listed as Imiquimod): minimal side-effects | Disappearance of LS lesions [1]: complete disappearance of the lesions | Disappearance of LS lesions ([1]; listed as Imiquimod): all the lesions of LS that were treated and developed the reaction had disappeared leaving no signs of any cutaneous change | IH lesion response ([2]; Case 1: frontal scalp IH 3.0×2.5 cm, after 4 weeks of thrice weekly application): less protuberant | Side effects ([2]; Case 1, after 4 weeks of thrice weekly application): marked erythema and crusting | IH lesion response ([2]; Case 1, after therapy discontinued for 2 weeks): marked reduction in the size of the IH | Side effects ([2]; Case 1, application every other day for 2 weeks): reappearance of inflammation and crusting | IH lesion response ([2]; Case 1, follow-up 4 weeks after end of therapy): virtually complete clinical regression of the IH with return to normal skin color | Recurrence at follow-up ([2]; Case 1, most recent follow-up): no recurrence of the lesion | Side effects ([2]; Case 2: frontal scalp IH 4.5 cm, after 3 weeks of 3 times weekly): marked crusting and erythema | IH lesion response ([2]; Case 2, four weeks after the 6 week course): near complete regression of the lesion | IH lesion at last follow-up ([2]; Case 2, last follow-up): the lesion had completely disappeared | Side effects ([2]; Case 2, restarted, every other day for 6 weeks): recurrence of erythema and crusting | IH lesion course after discontinuation ([2]; Case 2, two months after medication discontinued): rapid regrowth of the lesion | Side effects ([2]; Case 3: IH left lower lip, 5% cream every other day to outer lip area, after 2 weeks): marked inflammation and crusting over the lip area | IH lesion response, untreated area ([2]; Case 3, inner buccal mucosa (untreated)): persisted but had also decreased in size | IH lesion response, treated area ([2]; Case 3, outer lip area, after one and a half months of therapy): most of the IH over the outer lip area had regressed | Side effects ([2]; Case 4: IH right upper eyelid, 5% cream every other day): Erythema and crusting developed in two weeks | IH lesion response ([2]; Case 4, after one month of application every other day): regressed almost to the skin level | Neurologic examination ([2]; all patients of the report): none showed any adverse effects | Outcome of IH lesions ([2]; the other two patients, treatment continuing): continue to respond dramatically to treatment | Outcome of IH lesions ([2]; the two patients who completed therapy, at least one year of follow up): complete disappearance of their lesions with no recurrence at least at one year of follow up | Nodule size ([3]; after 2 weeks of application): decreased remarkably in size | Biopsy histology ([3]; biopsy just before surgery): scarring in the central cleared area and some residual tumor with marked inflammation in the peripheral inflamed rim | Lesion course in the interim before surgery ([3]; interim before surgery): continued to improve in the interim, developing a central cleared area | Side effects ([3]; person, 2.5 cm nodule left cheek, after 2 weeks of application): erythema and crusting | Re-biopsy histology ([3]; re-biopsy after 2 weeks of application): persistent hemangioendothelioma but with mild atypia and marked inflammation and fibrosis | Surgical specimen histology ([3]; surgical specimen): only scarring with no evidence of tumor | IFN-α (IFN-α and TNF-α [4]): local increase | TNF-α (IFN-α and TNF-α [4]): local increase | IFN-α (IFN-α and TNF-α [5]): local increase | TNF-α (IFN-α and TNF-α [5]): local increase | Apoptosis [6]: increased apoptosis | Intratumoral mast cells [6]: increased intratumoral mast cells | TNF-α level [6]: elevated levels | Tissue inhibitor of metalloproteinases type 1 (TIMP-1) level [6]: elevated levels | Cytokine production [7]: production of other cytokines including IL-2 and IFN-γ
